We go through ten compounds from US8183405B2, “Obovatol derivatives or pharmaceutically acceptable salts thereof, preparation method thereof and pharmaceutical composition for the prevention and treatment of cancer containing the same as an active ingredient” (Korea Research Institute of Bioscience and Biotechnology, priority 2008, dated 2012).

The subject of data set [1] is colorectal cancer cells (SW620). The experiment in a line: Apoptotic effect on cancer cells (annexin V-FITC/PI FACS). It is filed as cell-based, human. The settings on record: 50 μM, 48 hours, 14.12% at pre-treatment. As for the experimental part:
Apoptosis was analyzed using flow cytometry. First, colorectal cancer cells (SW620) were treated with 0.1% DMSO (negative control), 0 μM, 30 μM or 50 μM of the compound of Example 1 for 48 hours and detached with 0.05% trypsin-EDTA. After being harvested through centrifugation, the cells were washed twice with PBS (phosphate-buffered saline) and suspended at a density of 1×10^6 cells/ml in a 1× binding buffer (10 mM Hepes/NaOH, pH 7.4, 140 mM NaCl, and 2.5 mM CaCl2). 100 μl of the cell suspension was transferred into a 5 ml culture tube, mixed with 5 μl of annexin V-FITC and 10 μl of PI (propidium iodide), and incubated at room temperature for 15 min in a light-tight condition. Then, 400 μl of 1×binding buffer was added to each tube, followed by FACS analysis for annexin V-FITC-stained cells (Moussa Alkhalaf, Abdulla El-Mowafy, Waleed Renno, Ousama Rachid, Ahmed Ali, and Raja Al-Attyiah, Archives of Medical Research 39, 162-168, 2006).
In FACS plots of FIG. 1, the distribution of stained cells is shown. Cell migration to the second quadrant and the fourth quadrant refers to an increase in chromosome number, meaning an increased number of cells in the G2/M phase or S phase.
The third quadrant and the fourth quadrant of the FACS plot indicate cells expressing the early apoptosis marker annexin V.

In data set [2] the test system is human cancer cell line. In words: Inhibitory effect on growth of cancer cell (WST-1). The format is cell-based. As to conditions: for OD: 48 hours, WST-1, absorbance at 450 nm, control OD 0.604. As for the experimental part:
The compounds prepared in Examples 1, 2 and 3 were evaluated for inhibitory activity against the growth of a human cancer cell line using WST-1. Human cancer cell lines were incubated in 10% fetal bovine serum (FBS)-supplemented media at 37°C. in a 5% CO2 atmosphere, followed by detaching the cells with 0.05% trypsin-EDTA.
Cells were plated onto […] at a density of 4,000 cells (A549, MDA-MB-231), 5,000 cells (HEK293, NCI-H23) or 6,000 cells (HCA-7, HCT116, SW620, DU145) per well, which were counted using a hematocytometer.
After incubation in 10% FBS-supplemented media at 37°C. for 24 hours in a 5% CO2 incubator, the media was changed with fresh media containing a control (0.1% DMSO) or the compound of Example 1 in an amount of 5, 10, 15, 20, 25 or 30 μg/ml (dissolved in DMSO and diluted in the medium). After 48 hours of treatment, WST-1 (Roche) was added in an amount of 10 μl to each well and incubated for 2 hrs. Absorbance at 450 nm was read in an ELISA reader (Bio-Rad).
Background: Formazan colour is commonly taken as a measure of viable cells.

The nature of data set [3]: Solubility (Table 1). As to conditions: for Solubility Insoluble: solvents in which the compound is insoluble; for Solubility Soluble: solvents in which the compound is soluble. It is filed as physicochemical.
Data set [4] is described as follows: Assay for acute oral toxicity in rat. The settings on record: SD, in vivo, 500 mg/kg, oral administration, rats. As for the experimental part: Specific pathogen free (SPF) SD rats 6 weeks old were used for this assay. The obovatol derivative prepared in Example 1 or 2 was dissolved in distilled water, and the solution was orally administered at a dose of 500 mg/kg to respective groups of two rats.
Autopsies were performed to check for abnormalities of the thoracic and abdominal organs with the naked eye.

In general, LD50 refers to the dose expected to kill half of the subjects tested. Low readings indicate greater toxicity, high ones lower toxicity. As to `CCCc1ccc(Oc2cc(CCC)cc(O)c2O)cc1` [Example 1, 3-(4-propylphenoxy)-5-propylbenzene-1,2-diol], in data set [1], the “fraction of the cells migrating to the third quadrant (annexin V)” value was found to be 59.58%. Further, the OD in data set [2] (5 μg/ml) is 0.592; in data set [2] (10 μg/ml) it was 0.557; in data set [2] (15 μg/ml) it was 0.474; in data set [2] (20 μg/ml), 0.247; in data set [2] (25 μg/ml), 0.149; in data set [2] (30 μg/ml), 0.141. Besides, the “inhibit the growth of cancer cells” value in data set [2] (concentration of 20 μg/ml or higher) was not below 50%. Further, the “Solubility Insoluble” value in data set [3] is “Water”. Also, in data set [3], the “Solubility Soluble” value is on record as “Alcohol, DMSO”. Further, the LD50 in data set [4] was not below 500 mg/kg.

For the compound `C=CCc1ccc(Oc2cc(CC=C)cc(O)c2OC)cc1` [Example 2, 3-(4-allylphenoxy)-5-allyl-2-methoxyphenol], in data set [3], the “Solubility Insoluble” value is “Hexane, Water” and the “Solubility Soluble” value was “Alcohol, DMSO”. The compound further gave an LD50 in data set [4] not below 500 mg/kg.

Regarding `C=CCc1ccc(Oc2cc(CC=C)cc(OC(C)=O)c2OC(C)=O)cc1` [Example 3, 1-(4-allylphenoxy)-5-allyl-2,3-diacetyloxybenzene], in data set [3], the “Solubility Insoluble” value is recorded as “Hexane, Water” and the “Solubility Soluble” value is “Alcohol, DMSO”.

In the case of `C=CCc1ccc(Oc2cc(CC=C)cc(OC(=O)COC)c2OC(=O)COC)cc1` [Example 4, 1-(4-allylphenoxy)-5-allyl-2,3-di-2-methoxyacetyloxybenzene], in data set [3], the “Solubility Insoluble” value is reported as “Hexane, Water” and the “Solubility Soluble” value is given as “Alcohol, DMSO”.

Turning to `CCCc1ccc(Oc2cc(CCC)cc(O)c2OC)cc1` [Example 5, 3-(4-propylphenoxy)-2-methoxy-5-propylphenol], in data set [3], the “Solubility Insoluble” value is on record as “Hexane, Water” and the “Solubility Soluble” value is “Alcohol, DMSO”.

Consider `CCCc1ccc(Oc2cc(CCC)cc(OC(C)=O)c2OC(C)=O)cc1` [Example 6, 1-(4-propylphenoxy)-2,3-diacetyloxy-5-propylbenzene], for which, in data set [3], the “Solubility Insoluble” value is “Water” and the “Solubility Soluble” value is on record as “Alcohol, DMSO”.

For the compound `CCCc1ccc(Oc2cc(CCC)cc(OC(=O)COC)c2OC(=O)COC)cc1` [Example 7, 1-(4-propylphenoxy)-2,3-di-2-methoxyacetyloxy-5-propylbenzene], in data set [3], the “Solubility Insoluble” value was “Water” and the “Solubility Soluble” value is listed as “Alcohol, DMSO”.

For `C/C=C/c1ccc(Oc2cc(/C=C/C)cc(O)c2O)cc1` [Example 8, 3-(4-((E)-prop-1-enyl)phenoxy)-5-((E)-prop-1-enyl)benzene-1,2-diol], in data set [3], the “Solubility Insoluble” value is “Water” and the “Solubility Soluble” value is given as “Alcohol, DMSO”.

Take `C/C=C/c1ccc(Oc2cc(/C=C/C)cc(OC(C)=O)c2OC(C)=O)cc1` [Example 9, 1-(4-((E)-prop-1-enyl)phenoxy)-2,3-diacetyloxy-5-((E)-prop-1-enyl) benzene]: in data set [3], the “Solubility Insoluble” value was “Water” and the “Solubility Soluble” value is reported as “Alcohol, DMSO”.

As for `C/C=C/c1ccc(Oc2cc(/C=C/C)cc(OC(=O)COC)c2OC(=O)COC)cc1` [Example 10, 1-(4-((E)-prop-1-enyl)phenoxy)-2,3-di-2-methoxyacetyloxy-5-((E)-prop-1-enyl)benzene], in data set [3], the “Solubility Insoluble” value is listed as “Water” and the “Solubility Soluble” value is “Alcohol, DMSO”.
